Our source for the IC50 values is EP3974434B1, “MACROLIDE DERIVATIVES, PREPARATION METHOD AND APPLICATION THEREOF” (Zhejiang Hisun Pharmaceutical Co., Ltd., priority 2019, dated 2020).

SMILES strings stand for the structures.

Holding throughout (format): biochemical
One assay addresses T1, ALK(G1202R) (Homo sapiens, UniProt Q9UM73, G1202R).
T1 construct: purchased SignalChem A19-12HG-10
The assay is described as follows: HTRF KinEASE-TK kinase activity inhibition assay, ALK(G1202R). Particulars: ATP 10 µM. An excerpt: The following method was used to determine the inhibition degrees of the compounds of the present invention on the activities of recombinant human ALK(G1202R) and ALK(L1196M, G1202R) kinases in vitro. In this method, HTRF®KinEASE-TK tyrosine kinase kit (article No. 62TK0PEB) of Cisbio company was used, the principle of the kit was based on time-resolved fluorescence resonance energy transfer (TF-FRET), and the inhibitions of the compounds on the activities of the ALK(G1202R) and ALK(L1196M, G1202R) kinases were reflected by determining a phosphorylation degree of a biotinylated polypeptide substrate mediated by ALK kinase. For detailed experimental operation, please refer to the kit instruction. […]
The experimental flow was briefly described as follows: a test compound was first dissolved in DMSO to prepare a storage solution, and then diluted in gradient with a buffer provided in the kit. […] An ATP Km value concentration of each ALK protein was determined by using an ATP solution diluted in gradient (Sangon Biotech (Shanghai) Co., Ltd., A600311). […] After incubation, fluorescence intensity values of each well at an excitation wavelength of 304 nm, and emission wavelengths of 620 nm and 665 nM were determined in a TF-FRET mode on a microplate reader, and the fluorescence intensity ratio 665/620 of each hole was calculated. […]
On the technique in general: TR-FRET usually uses a lanthanide donor and a delayed reading to cut background.

The target in a further assay is T2, TRKA(G595R) (Homo sapiens, UniProt P04629, G595R).
T2 construct: purchased SignalChem N16-12BG-10
The assay is described as follows: HTRF KinEASE-TK kinase activity inhibition assay, TRKA(G595R). The settings on record: ATP 7 µM. The text has this: (§1) The following method was used to determine the inhibition degrees of the compounds of the present invention on the activity of recombinant human NTRK family kinase in vitro. In this method, HTRF®KinEASE-TK tyrosine kinase kit (article number: 62TK0PEB) of Cisbio company was used, and the principle of the kit was based on time-resolved fluorescence resonance energy transfer (TF-FRET), and the inhibition of the compounds on the activity of the NTRK kinase was reflected by determining a phosphorylation degree of a biotinylated polypeptide substrate mediated by NTRK kinase. For detailed experimental operation, please refer to the kit instruction. Recombinant human wild-type NTRK proteins were purchased from Carna bioscience (the article numbers were TRKA #08-186, TRKB #08-187 and TRKC #08-197 respectively), and recombinant human mutant NTRK proteins were purchased from SignalChem (the article numbers were TRKA G595R #N16-12BG-10, TRKA G667C # N16-12CG-10, and TRKC G623R # N18-12CH-10 respectively).
(§2) The experimental methods were operated according to the steps in the kit instruction, and were briefly described as follows: a test compound was first dissolved in DMSO to prepare a storage solution, and then diluted in gradient with a buffer provided in the kit. A final concentration of the test compound in the reaction system ranged from 1,000 nM to 0.004 nM. An ATP Km value concentration of each NTRK protein was determined by using an ATP solution diluted in gradient (Sangon Biotech (Shanghai) Co., Ltd., A600311). According to the Km value obtained, the ATP concentrations in the reaction system were set as 100 µM for TRKA, 10 µM for TRKB, 50 µM for TRKC, 7 µM for TRKA(G595R), 1 µM for TRKA(G667C) and 100 µM for TRKC(G623R). The reaction was carried out in a 384-well microplate. Firstly, the compound and a certain amount of corresponding NTRK protein were added to the wells and incubated for 5 minutes to 10 minutes at room temperature. Then, the ATP solution and the biotinylated polypeptide substrate solution were added to the reaction solution and incubated with shaking at room temperature for 60 minutes. Then, an anti-phosphorylated tyrosine antibody coupled with a europium compound and streptavidin coupled with modified allophycocyanin XL665 were added to the reaction, and continuously incubated with shaking at room temperature for 1 hour. After incubation, fluorescence intensity values of each well at an excitation wavelength of 304 nm, and emission wavelengths of 620 nm and 665 nM were determined in a TF-FRET mode on a microplate reader. Compared with the fluorescence intensity ratio of a control group (0.1% DMSO), the percentage inhibition rates of the compound at each concentration were calculated, and the IC50 value of the compound was obtained by performing nonlinear regression analysis for logarithmic value of the compound concentration - inhibition rate by GraphPad Prism 5 software, which can be seen in Table 1. Table 1 IC50 data of the compounds of the present invention on TRK enzyme activity inhibition

The target in the next assay is T3, TRKA (Homo sapiens, UniProt P04629).
T3 construct: purchased Carna bioscience 08-186
The assay is described as follows: HTRF KinEASE-TK kinase activity inhibition assay, TRKA. The settings on record: ATP 100 µM.
From the text: as §1, §2

T3 sequence (P04629 33-796): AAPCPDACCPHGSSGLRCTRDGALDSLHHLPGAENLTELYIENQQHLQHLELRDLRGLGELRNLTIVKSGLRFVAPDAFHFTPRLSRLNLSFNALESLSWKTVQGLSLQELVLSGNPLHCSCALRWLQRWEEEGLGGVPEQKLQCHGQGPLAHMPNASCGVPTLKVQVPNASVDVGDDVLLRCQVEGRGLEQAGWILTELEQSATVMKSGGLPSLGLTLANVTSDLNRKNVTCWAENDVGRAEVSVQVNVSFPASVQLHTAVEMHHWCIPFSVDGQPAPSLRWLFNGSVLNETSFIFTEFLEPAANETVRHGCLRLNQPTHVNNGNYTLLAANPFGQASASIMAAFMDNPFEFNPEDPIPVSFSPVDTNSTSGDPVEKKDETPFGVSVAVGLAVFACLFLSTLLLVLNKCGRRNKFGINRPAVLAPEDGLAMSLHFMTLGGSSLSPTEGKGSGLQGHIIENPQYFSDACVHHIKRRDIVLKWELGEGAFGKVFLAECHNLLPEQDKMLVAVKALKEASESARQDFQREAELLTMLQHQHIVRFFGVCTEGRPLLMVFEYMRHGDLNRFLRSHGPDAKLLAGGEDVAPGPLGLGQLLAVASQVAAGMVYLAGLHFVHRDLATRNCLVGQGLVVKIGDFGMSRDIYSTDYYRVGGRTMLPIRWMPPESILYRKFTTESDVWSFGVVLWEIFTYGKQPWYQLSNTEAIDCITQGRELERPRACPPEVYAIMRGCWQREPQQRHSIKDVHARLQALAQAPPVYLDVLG
T2 sequence (P04629 33-796 G595R): as the sequence (P04629 33-796) above, with G563R counted along it
T1 sequence (Q9UM73 19-1620 G1202R): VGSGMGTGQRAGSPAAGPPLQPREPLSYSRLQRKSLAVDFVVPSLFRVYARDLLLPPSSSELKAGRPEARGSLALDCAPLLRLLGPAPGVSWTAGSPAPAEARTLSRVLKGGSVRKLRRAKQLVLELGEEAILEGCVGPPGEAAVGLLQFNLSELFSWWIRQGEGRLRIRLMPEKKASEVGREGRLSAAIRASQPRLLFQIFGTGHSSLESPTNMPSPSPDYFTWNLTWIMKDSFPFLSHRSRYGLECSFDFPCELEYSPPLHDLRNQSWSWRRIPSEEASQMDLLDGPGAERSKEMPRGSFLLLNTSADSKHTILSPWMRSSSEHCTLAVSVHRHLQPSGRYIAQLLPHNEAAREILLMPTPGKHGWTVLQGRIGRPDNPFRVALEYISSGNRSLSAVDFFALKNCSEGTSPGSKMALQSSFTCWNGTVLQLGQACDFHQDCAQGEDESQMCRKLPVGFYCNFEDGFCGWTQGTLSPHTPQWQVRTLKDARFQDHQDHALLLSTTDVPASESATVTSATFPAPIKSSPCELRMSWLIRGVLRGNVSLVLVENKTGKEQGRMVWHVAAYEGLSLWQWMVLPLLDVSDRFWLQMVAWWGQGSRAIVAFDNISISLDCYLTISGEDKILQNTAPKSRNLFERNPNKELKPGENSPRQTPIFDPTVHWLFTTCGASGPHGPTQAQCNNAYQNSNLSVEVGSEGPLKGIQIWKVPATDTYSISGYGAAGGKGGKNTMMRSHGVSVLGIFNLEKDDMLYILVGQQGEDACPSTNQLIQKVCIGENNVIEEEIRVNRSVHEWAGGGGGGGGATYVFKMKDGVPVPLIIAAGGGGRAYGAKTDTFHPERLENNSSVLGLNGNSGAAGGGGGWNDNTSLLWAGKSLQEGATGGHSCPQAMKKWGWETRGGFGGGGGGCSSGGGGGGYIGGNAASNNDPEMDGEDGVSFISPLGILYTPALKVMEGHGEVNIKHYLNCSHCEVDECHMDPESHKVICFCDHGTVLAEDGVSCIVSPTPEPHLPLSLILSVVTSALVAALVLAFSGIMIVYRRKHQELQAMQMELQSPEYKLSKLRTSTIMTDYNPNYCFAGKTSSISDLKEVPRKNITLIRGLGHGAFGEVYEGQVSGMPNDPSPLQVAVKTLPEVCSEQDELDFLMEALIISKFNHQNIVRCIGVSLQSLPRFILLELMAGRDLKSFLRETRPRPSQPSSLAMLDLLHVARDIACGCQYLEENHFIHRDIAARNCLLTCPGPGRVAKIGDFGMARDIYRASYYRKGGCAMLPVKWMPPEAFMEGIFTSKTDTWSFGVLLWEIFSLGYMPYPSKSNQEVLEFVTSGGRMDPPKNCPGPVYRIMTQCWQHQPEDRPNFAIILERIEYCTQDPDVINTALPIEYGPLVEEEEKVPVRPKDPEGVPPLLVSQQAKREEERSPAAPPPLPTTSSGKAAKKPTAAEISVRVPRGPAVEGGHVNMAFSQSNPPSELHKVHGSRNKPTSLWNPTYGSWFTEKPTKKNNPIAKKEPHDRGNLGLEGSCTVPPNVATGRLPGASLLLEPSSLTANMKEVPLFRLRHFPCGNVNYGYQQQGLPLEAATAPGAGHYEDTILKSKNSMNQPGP

In general, IC50 refers to the concentration that gives 50% inhibition. A lower IC50 goes with greater potency. On to `C[C@H]1Nc2ccn3ncc(c3n2)C(=O)NC[C@@]2(C)Cc3cc(F)cc1c3O2` [Example 8, (3R,11R)-6-fluoro-3,11-dimethyl-10-oxa-2,13,17,1 8,21-pentaazapentacyclo[13.5.2.1^8,11.0^4,9.0^18,22]tric osa-1(21),4,6,8,15(22),16,19-heptaen-14-one], for which the values for the IC50 at ALK(G1202R), against TRKA(G595R) and against TRKA were 13.2 nM, 2.03 nM and 0.56 nM, respectively.

Take `C[C@H]1Nc2ccn3nc(N)c(c3n2)C(=O)NC[C@@]2(C)Cc3cc(F)cc1c3O2` [Example 25, (3R,11R)-16-amino-6-fluoro-3,11-dimethyl-10-oxa-2,13,17,18,21-pentaazapentacyclo[13.5.2.1^8,11.0^4,9. 0^18,22]tricosa-1(21),4,6,8,15(22),16,19-heptaen-14-one]: the IC50 on ALK(G1202R) is 13.6 nM; on TRKA(G595R), 5.4 nM; against TRKA, 0.82 nM.
